Measurements: article PMC8953427, “Enantioselectivity of Pentedrone and Methylone on Metabolic Profiling in 2D and 3D Human Hepatocyte-like Cells” (Pharmaceuticals, 2022)

Experiments:
[1] = tested on: 2D-HLCs; assay: Metabolite formation in 2D-HLCs by GC-MS; type: in vitro ADME, human; settings: 1 mM, 6 h
Description: (§1) Regarding the study of methylone and pentedrone metabolite biosynthesis, in 2D-HLCs and 3D-HLCs, at the D17 of the HLCs differentiation, the cells were seeded in 6-well plates in 1 mL of culture medium at a density of 2.0 × 10^5 cells/well and 5.0 × 10^5 cells/well in 2D and 3D cultures, respectively. At D34, 2D-HLCs and 3D-HLCs were exposed to 1 mM of each enantiomer diluted in IMDM. Upon 6 h of incubation, the IMDM was removed and the pellets were quenched with 2 mL of ice-cold acetonitrile and scraped. The quenched solutions were centrifuged for 10 min at 4 °C. After the addition of methcathinone (internal standard) 100 µg/mL, the supernatants were derivatized with TFAA and analyzed by GC–MS [2, 41].
(§2) To study pentedrone and methylone metabolic profiles, we set up a methodology for the identification of pentedrone and methylone phase I metabolites based on a GC–MS methodology developed by Araujo et al. and Uralets et al. with some adaptations. Briefly, samples from the metabolic assays (200 μL) were evaporated to dryness under nitrogen flow. Then, 50 µL of ethyl acetate and 50 µL of TFAA (derivatizing agent) were added to the dried residue. Incubation was performed at 65 °C for 15 min. After cooling to room temperature, the extract was dried under nitrogen flow. The residue obtained was dissolved in 100 μL of ethyl acetate, and 2 μL was injected into the GC–MS apparatus.
(§3) GC–MS analysis was performed with a 436-GC model (Bruker Daltonics, Billerica, MA, USA) coupled to an EVOQ triple quadrupole mass spectrometer (Bruker Daltonics) and a Bruker MS workstation software version 8.2. The chromatographic separation was accomplished using a fused silica capillary column (Rxi-5Sil MS; 30 m × 0.25 mm × 0.25 μm; Restek Corporation, U.S., Bellefonte, PA, USA). The carrier gas was helium C-60 (Gasin, Portugal), at a constant flow of 1 mL/min. Injections were performed in split mode, with a ratio of 1/20. The injector port was heated to 250 °C. The initial column temperature was 80 °C, followed by a temperature increase of 15 °C/min to 150 °C and 10 °C/min to 300 °C. The MS detector was operated in EI mode (70 eV). The temperature of the transfer line, manifold and EI were 280, 40, and 270 °C, respectively. Data acquisition was performed in full scan mode with a mass range between 50 and 800 m/z at a scan rate of 8 scans/s. The emission current was 40 µA. Ionization was maintained off during the first 1.5 min to avoid solvent overloading. Total separation run time was 20 min.
The analysis was initially performed in full scan mode. […] For that, specific metabolites of methylone and pentedrone, already identified in previous studies, were selected to postulate their mass fragmentation according to their chemical structures (Figure 11) for posterior analysis using the specific ions (m/z in SIM mode) to identify and confirm the metabolite peaks. In SIM mode the selected m/z ions were: IS—m/z 77, 105, 110, and 154; methylone—m/z 121, 149, 154, and 303; nor-methylone—m/z 121, 140, 149, 168, 289, and 260; dihydromethylone—m/z 121, 154, 247, 280, and 401; DHMC—m/z 154, 182, 209, 237, and 391; N-hydroxymethylone—m/z 121, 149, 170, 198, and 319; nor-pentedrone—m/z 77, 105, 126, 168, and 273; dihydropentedrone—m/z 140, 182, 203, 272, and 385; and pentedrone—m/z 77, 105, 140, and 182.

[2] = tested on: SH-SY5Y cells; set-up: method as in PMID 33609514; settings: cited from earlier work
[3] = tested on: 3D-HLCs; assay: Metabolite formation in 3D-HLCs by GC-MS; type: in vitro ADME, human; settings: 1 mM, 6 h
Description: as §1, §2, §3
The analysis was initially performed in full scan mode. […]

[4] = tested on: Caco-2 cell monolayer; set-up: method as in PMID 32234388; settings: cited from earlier work
[5] = cited from earlier work
[6] = tested on: primary rat hepatocytes (PRH); settings: read-out: EC50 (cytotoxic effects), racemic; cited from earlier work
[7] = Cell viability (CellTiter-Glo 3D) in 2D monolayer HLCs; type: cell-based, human; settings: human; racemate, 2D-HLCs, 24 h exposure, 0-20.0 mM; read-out: EC50 (cytotoxicity)
Description: (§4) The hnMSCs isolated from human umbilical cord stroma were fully characterized as described elsewhere and expanded in Eagle’s minimum essential medium—alpha modification (α-MEM) supplemented with 10% (v/v) of fetal bovine serum (FBS; Gibco, Paisley, UK). For generating HLCs, a three-step differentiation protocol was applied to hnMSCs, as detailed previously. Briefly, hnMSCs were seeded at a density of 1.5 × 10^5 cells/cm^2 in a rat-tail collagen (0.2 mg/mL) coated surface plates. At day 17 (D17) of differentiation, cells were trypsinized and reinoculated in Iscove’s modified Dulbecco’s medium (IMDM) with 8 ng/mL oncostatin M (OSM; Peprotech, Rocky Hill, NJ, USA), 1 µM dexamethasone, 1% dimethyl sulfoxide (DMSO) and 1% insulin-transferrin-selenium solution (Gibco, Grand Island, NY, USA), 20 µM of 5-azacytidine, and 5% (v/v) FBS into (i) ultra-low attachment (ULA; VWR International, Radnor, PA, USA) plates (5 × 10^5 cells/mL) to obtain a 3D spheroid culture or (ii) 2D culture plates pre-coated with collagen (2 × 10^4 cells/cm^2). Medium was changed 24 h after inoculation to remove 5-azacytidine and FBS. Cells were maintained until D34 in this medium, which was replaced every 3 days.
(§5) The cytotoxicity of the racemic mixtures (0.25, 0.5, 1.0, 2.0, 3.0, 4.0, 6.0, 8.0, 10.0, and 20.0 mM) and enantiomers (0.5 and 1.0 mM) of pentedrone and methylone were evaluated in both 2D monolayer and 3D spheroid cultures of HLCs, maintained as described above with slight changes. Briefly, at D17 of differentiation, cells were seeded in 96-well plates in 200 μL of culture medium at a density of 6.4 × 10^3 cells/well and 1.6 × 10^4 cells/well in 2D and 3D cultures, respectively. At D34, HLCs cultured in 2D and 3D were exposed to the abovementioned racemic mixtures and enantiomers diluted in IMDM. Cell viability was measured upon 24 h of incubation with the compounds using the CellTiter-Glo® 3D Cell Viability Assay (Promega, Madison, WI, USA), according to manufacturer instructions. Five percent DMSO was used as negative control and IMDM as positive control. IC50 was calculated for the racemic mixtures using a nonlinear regression fit for the Log10 transformation of the concentration values by using GraphPad Prism version 7.0 (GraphPad Software, La Jolla, CA, USA). Three independent experiments were performed.

[8] = tested on: 2D-HLCs (human stem-cell-derived hepatocyte-like cells); assay: as above; type: cell-based; settings: racemate, 24 h, 0-20.0 mM
Description: as §4, §5

[9] = tested on: human liver microsomes (HLM); settings: cited from earlier work
[10] = Cell viability (CellTiter-Glo 3D) in 3D spheroid HLCs; type: cell-based, human; settings: human; racemate, 3D-HLCs, 24 h exposure, 0-20.0 mM; read-out: EC50 (cytotoxicity)
Description: as §4, §5

[11] = tested on: 3D-HLCs (human stem-cell-derived hepatocyte-like cells); assay: as above; type: cell-based; settings: 24 h; for concentrations at which cytotoxicity was observed: racemate, 3D-HLCs, compared to control cells
Description: as §4, §5

[12] = tested on: human liver microsomes (HLM); assay: Metabolism in ultra-pool human liver microsomes by GC-MS; type: in vitro ADME; settings: HLM 1 mg protein/mL, 50 µM enantiomer, 0-60 min
Description: The metabolism of methylone and pentedrone was initially evaluated by incubation with ultra-pool human liver microsomes (HLM) at a final assay concentration of 1 mg protein/mL. All experiments were performed in duplicate. The incubation mixture with the HLM consisted of 1.3 mM NADP^+, 3.3 mM glucose-6-phosphate, 3.3 mM MgCl2, 0.4 IU/mL glucose-6-phosphate dehydrogenase, and 0.05 mM sodium citrate in 0.1 M phosphate buffer at pH 7.4. The incubation mixture with each drug was pre-incubated 10 min at 37 °C before the experiment was started with the addition of the HLM. All microsomes assays were incubated with 50 µM of each enantiomer in a final volume of 1 mL at 37 °C. At the time points 0, 5, 10, 20, 30, 40, 50, and 60 min, 100 µL aliquots of the incubations were quenched with 100 µL of ice-cold acetonitrile and methcathinone (internal standard) 100 µg/mL. The quenched solutions were centrifuged for 10 min at 4 °C and the supernatants were extracted with ethyl acetate after previous pH correction (pH = 11 for pentedrone and pH = 13 for methylone).
To study pentedrone and methylone metabolic profiles, we set up a methodology for the identification of pentedrone and methylone phase I metabolites based on a GC–MS methodology developed by Araujo et al. and Uralets et al. with some adaptations. […]

Q: For `CN[C@H](C)C(=O)c1ccc2c(c1)OCO2` [R-(+)-methylone], which “preferential metabolic route of the enantiomer” value (“preferential metabolic route” below) [1] is on record?
A: Its value is “preferentially metabolized by O-demethylation and N-hydroxylation”.

Q: What about the enantioselectivity in cytotoxicity [2] of the same compound?
A: The enantioselectivity in cytotoxicity was “most cytotoxic”.

Q: And the “preferential metabolic route” value [3]?
A: Its value is “preferentially metabolized by all metabolic routes, except for O-demethylation”.

Q: Which results are given for S-(−)-methylone?
A: preferential metabolic route of the enantiomer [1]: preferentially metabolized via N-demethylation; enantioselectivity in intestinal absorption (permeability) [4]: most permeable

Q: With `CNC(C)C(=O)c1ccc2c(c1)OCO2` (centres unmarked) [methylone] as the compound, how does the liver-to-blood ratio [5] read?
A: Its liver-to-blood ratio is ≤ 3.

Q: And the “metabolite with the highest formation” value [1]?
A: The value was “N-Hydroxymethylone”.

Q: And the EC50 [6]?
A: The EC50 was 1.6 mM.

Q: And the “metabolite with the highest formation” value [3]?
A: Its value is “N-Hydroxymethylone”.

Q: What about the EC50 at 24 h [7] of the same compound?
A: Its EC50 at 24 h is 4.8 mM.

Q: And the “cytotoxicity compared to control cells” value [8]?
A: The value was “significant cytotoxicity for all concentrations tested”.

Q: What about the “enzymes metabolizing the drug” value [9] of the same compound?
A: The value was “initially metabolized by CYP2D6, with minor contributions of CYP1A2, CYP2B6, and CYP2C19”.

Q: What about the EC50 at 24 h [10] of the same compound?
A: Its EC50 at 24 h is 5.2 mM.

Q: And the “concentrations at which cytotoxicity was observed” value [11]?
A: The value was > 3000 µM.

Q: What about the “phase I metabolites identified” value [12] of the same compound?
A: Its value is “N-hydroxymethylone, DHMC, dihydromethylone, and nor-methylone”.

Q: Which “preferential metabolic route” value [1] does the source give for `CCC[C@@H](NC)C(=O)c1ccccc1` [R-(−)-pentedrone] here?
A: The value was “preferentially metabolized by all metabolic routes”.

Q: What about the “enantioselectivity in intestinal absorption (permeability)” value [4] of the same compound?
A: The value was “most permeable”.

Q: And the “preferential metabolic route” value [3]?
A: The value was “preferentially metabolized by β-keto reduction”.

Q: And the enantioselectivity in cytotoxicity ([11]; enantiomers at 1 mM, 3D cultures)?
A: The enantioselectivity in cytotoxicity was “most cytotoxic enantiomer”.

Q: What does the source list for `CCCC(NC)C(=O)c1ccccc1` (centres unmarked) [pentedrone]?
A: liver-to-blood ratio [5]: up to 11; metabolite with the highest formation [1]: dihydropentedrone; EC50 [6]: 0.7 mM; metabolite with the highest formation [3]: dihydropentedrone; EC50 at 24 h [7]: 2.8 mM; cytotoxicity compared to control cells [8]: significant cytotoxicity for all concentrations tested; EC50 at 24 h [10]: 3.6 mM; concentrations at which cytotoxicity was observed [11]: higher than 1.0 mM; phase I metabolites identified [12]: dihydropentedrone and nor-pentedrone

Q: For `CCC[C@H](NC)C(=O)c1ccccc1` [S-(+)-pentedrone], which enantioselectivity in cytotoxicity [2] is on record?
A: Its enantioselectivity in cytotoxicity is “most cytotoxic”.
